In ChEMBL document CHEMBL1152828, “Rare dipeptide and urea derivatives from roots of Moringa oleifera as potential anti-inflammatory and antinociceptive agents” (Eur J Med Chem, 2009):
Activity calls are given as the source filed them. No cut-off for these calls is given here.

Columns and labels:
[1] = system: Mus musculus; test: Analgesic activity in intracerebrally dosed mouse assessed as increase in time course of latency for thermal stimulation by hotplate test; type: functional, organism-based
[2] = system: Blood; test: Inhibition of LPS-induced TNFalpha production in rat whole blood at 12.5 to 50 uM by ELISA; type: functional, tissue-based
[3] = system: Blood; test: Inhibition of LPS-induced IL2 production in rat whole blood at 12.5 to 50 uM by ELISA; type: functional, tissue-based
[4] = system: Blood; test: Inhibition of LPS-induced IL6 production in rat whole blood at 12.5 to 50 uM by ELISA; type: functional, tissue-based
[5] = target: Transient receptor potential cation channel subfamily V member 1 (Rattus norvegicus, UniProt O35433); test: Antagonist activity at TRPV1 in rat DRG neuron assessed as inhibition of calcium uptake; type: functional
Chain of Transient receptor potential cation channel subfamily V member 1 (O35433 whole entry): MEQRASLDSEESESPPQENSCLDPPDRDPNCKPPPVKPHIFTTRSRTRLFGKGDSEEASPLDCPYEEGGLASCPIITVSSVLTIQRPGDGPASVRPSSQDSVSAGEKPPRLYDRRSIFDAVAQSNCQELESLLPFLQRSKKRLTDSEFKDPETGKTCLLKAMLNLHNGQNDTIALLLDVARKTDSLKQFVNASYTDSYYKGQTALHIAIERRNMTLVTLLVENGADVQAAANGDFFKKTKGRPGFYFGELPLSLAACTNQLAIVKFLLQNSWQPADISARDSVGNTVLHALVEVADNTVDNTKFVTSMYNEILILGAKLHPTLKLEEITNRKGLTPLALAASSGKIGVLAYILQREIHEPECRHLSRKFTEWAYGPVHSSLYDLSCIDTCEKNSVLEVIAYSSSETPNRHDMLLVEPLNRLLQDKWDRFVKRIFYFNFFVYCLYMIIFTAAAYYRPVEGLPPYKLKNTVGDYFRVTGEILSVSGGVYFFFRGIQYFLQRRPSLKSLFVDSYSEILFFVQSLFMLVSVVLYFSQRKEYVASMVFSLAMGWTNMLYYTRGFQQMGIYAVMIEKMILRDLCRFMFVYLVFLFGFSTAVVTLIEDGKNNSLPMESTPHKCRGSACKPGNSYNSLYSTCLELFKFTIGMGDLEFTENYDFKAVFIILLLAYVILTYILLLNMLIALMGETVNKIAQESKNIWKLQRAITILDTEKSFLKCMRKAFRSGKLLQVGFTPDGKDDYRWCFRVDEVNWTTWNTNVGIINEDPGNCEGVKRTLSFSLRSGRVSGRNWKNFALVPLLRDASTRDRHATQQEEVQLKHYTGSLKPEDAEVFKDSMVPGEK

IC50 [5] [nM] | Structure (SMILES) | Activity [1] | Activity [2] | Activity [3] | Activity [4]
– | CC(=O)OCC(Cc1ccccc1)NC(=O)C(Cc1ccccc1)NC(=O)c1ccccc1 (configuration not stated) | Dose-dependent effect | Active | Active | Active
10 | O=C(NCc1ccccc1)NCc1ccccc1 | Dose-dependent effect | – | Active | –
